Experimental data from patent US12083100B1, “Antiparasitic isoxazoline compounds, long-acting injectable formulations comprising them, methods and uses thereof” (BOEHRINGER INGELHEIM ANIMAL HEALTH USA INC., priority 2016, dated 2024).

Test system: Rhipicephalus microplus ticks
Assay: Efficacy of injectable formulation against Rhipicephalus (Boophilus) microplus ticks on cattle
Type: in vivo
Details: for Average % Efficacy (Tick Count): vs untreated control; for efficacy and duration of activity against Rhipicephalus microplus compared with other isoxazoline compounds / speed of onset of efficacy against Rhipicephalus microplus compared with other isoxazoline compounds: injectable composition, compared with afoxolaner, (If) or (S)-If
Procedure: The efficacy of long-acting injectable compositions of the invention comprising the compounds of formula (Ie) and (S)-Ie, against Rhipicephalus microplus ticks on cattle was determined against an untreated control group. The efficacy of compositions comprising the compounds (Ie) and (S)-e were also compared with injectable compositions comprising afoxolaner (formula Ia, 4-[5-[3-chloro-5-(trifluoromethyl)phenyl]-4,5-dihydro-5-(trifluoromethyl)-3-isoxazolyl]-N-[2-oxo-2-[(2,2,2-trifluoroethyl)amino]ethyl]-1-naphthalanecarboxamide), and comparative compounds of formulae (If) and (S)-If shown below.
Each compound was formulated in an injectable composition at a concentration of 10% (w/v) in a carrier comprising 8% (w/v) ethanol and Q.S. with polyethylene glycol 400. The racemic compounds afoxolaner and (If) were dosed at 1.0 mg/kg body weight and the (S)-enantiomers ((S)-Ie and (S)-If) were dosed at 0.5 mg/kg body weight. Six healthy head of cattle were used in each study group. Cattle in Group 1 were untreated (control). Cattle in Groups 2, 3, 4, 5 and 6 were treated on Day 0 subcutaneously with injectable compositions comprising the compounds of formula Ie, (S)-If, (S)-Ie, afoxolaner (Ia) and (If), respectively. Several weeks before treatment, cattle were infested three times a week with approximately 2500 Rhipicephalus microplus larvae to establish ongoing infestations. Each animal was challenged by infestation with approximately 5000 R. microplus larvae on Days 7 and 21 and every 14 days thereafter. Ticks dropping from each animal in the previous 24 hours were collected daily and counted from Day 1 until the end of the study.

[1] = Day 5, 1.0 mg/kg subcutaneous on Day 0 (racemic compounds)
[2] = Day 10, 1.0 mg/kg subcutaneous on Day 0 (racemic compounds)
[3] = Day 20, 1.0 mg/kg subcutaneous on Day 0 (racemic compounds)
[4] = Day 30, 1.0 mg/kg subcutaneous on Day 0 (racemic compounds)
[5] = Day 40, 1.0 mg/kg subcutaneous on Day 0 (racemic compounds)
[6] = Day 49, 1.0 mg/kg subcutaneous on Day 0 (racemic compounds)
[7] = Day 55, 1.0 mg/kg subcutaneous on Day 0 (racemic compounds)
[8] = Day 60, 1.0 mg/kg subcutaneous on Day 0 (racemic compounds)
[9] = Day 65, 1.0 mg/kg subcutaneous on Day 0 (racemic compounds)
[10] = Day 70, 1.0 mg/kg subcutaneous on Day 0 (racemic compounds)
[11] = Day 75, 1.0 mg/kg subcutaneous on Day 0 (racemic compounds)
[12] = listed as formula (Ic) wherein X^1 is chloro, X^2 is fluoro and X^3 is CF3
[13] = listed as formula (Id) in which Y is Y-2, Q is —C(O)NHCH2C(O)NHCH2CF3, X^1 is fluoro and X

Row | SMILES | Average % Efficacy (Tick Count) [1] [%] | Average % Efficacy (Tick Count) [2] [%] | Average % Efficacy (Tick Count) [3] [%] | Average % Efficacy (Tick Count) [4] [%] | Average % Efficacy (Tick Count) [5] [%] | Average % Efficacy (Tick Count) [6] [%] | Average % Efficacy (Tick Count) [7] [%] | Average % Efficacy (Tick Count) [8] [%] | Average % Efficacy (Tick Count) [9] [%] | Average % Efficacy (Tick Count) [10] [%] | Average % Efficacy (Tick Count) [11] [%] | other results
1 | O=C(CNC(=O)c1ccc(C2=NOC(c3cc(Cl)c(F)c(C(F)(F)F)c3)(C(F)(F)F)C2)c2ccccc12)NCC(F)(F)F (racemic) [Ie] | 69 | 100 | 100 | 100 | 100 | 100 | 100 | 100 | 100 | 100 | 100 | Average % Efficacy (Tick Count) (Day 80, 1.0 mg/kg subcutaneous on Day 0 (racemic compounds)): 100%; Average % Efficacy (Tick Count) (Day 85, 1.0 mg/kg subcutaneous on Day 0 (racemic compounds)): 100%; Average % Efficacy (Tick Count) (Day 88, 1.0 mg/kg subcutaneous on Day 0 (racemic compounds)): 100%; Average % Efficacy (Tick Count) (Day 95, 1.0 mg/kg subcutaneous on Day 0 (racemic compounds)): 100%; Average % Efficacy (Tick Count) (Day 100, 1.0 mg/kg subcutaneous on Day 0 (racemic compounds)): 100%; Average % Efficacy (Tick Count) (Day 105, 1.0 mg/kg subcutaneous on Day 0 (racemic compounds)): 93%; Average % Efficacy (Tick Count) (Day 110, 1.0 mg/kg subcutaneous on Day 0 (racemic compounds)): 82%; efficacy and duration of activity against Rhipicephalus microplus compared with other isoxazoline compounds: surprising and unexpected efficacy; speed of onset of efficacy against Rhipicephalus microplus compared with other isoxazoline compounds (listed as Je): faster-acting; efficacy and duration of activity against Rhipicephalus microplus compared with other isoxazoline compounds [12]: surprisingly long-lasting and excellent efficacy; speed of onset of efficacy against Rhipicephalus microplus compared with other isoxazoline compounds [12]: quick onset; efficacy and duration of activity against Rhipicephalus microplus compared with other isoxazoline compounds [13]: surprisingly improved duration of activity; speed of onset of efficacy against Rhipicephalus microplus compared with other isoxazoline compounds [13]: surprisingly improved fast-acting efficacy
2 | O=C(CNC(=O)c1ccc(C2=NOC(c3cc(Cl)cc(C(F)(F)F)c3)(C(F)(F)F)C2)c2ccccc12)NCC(F)(F)F (racemic) [afoxolaner, 4-[5-[3-chloro-5-(trifluoromethyl)phenyl]-4,5-dihydro-5-(trifluoromethyl)-3-isoxazolyl]-N-[2-oxo-2-[(2,2,2-trifluoroethyl)amino]ethyl]-1-naphthalanecarboxamide, reference compound] | 38 | 48 | 77 | 99 | 100 | 94 | 73 | 71 | 48 | 3 | 0 | 
3 | O=C(CNC(=O)c1ccc(C2=NO[C@@](c3cc(Cl)cc(Cl)c3)(C(F)(F)F)C2)c2ccccc12)NCC(F)(F)F [(S)-If, reference compound] |  |  |  |  |  |  |  |  |  |  |  | Average % Efficacy (Tick Count) (Day 5, 0.5 mg/kg subcutaneous on Day 0 ((S)-enantiomers)): 39%; Average % Efficacy (Tick Count) (Day 10, 0.5 mg/kg subcutaneous on Day 0 ((S)-enantiomers)): 27%; Average % Efficacy (Tick Count) (Day 20, 0.5 mg/kg subcutaneous on Day 0 ((S)-enantiomers)): 33%; Average % Efficacy (Tick Count) (Day 30, 0.5 mg/kg subcutaneous on Day 0 ((S)-enantiomers)): 86%; Average % Efficacy (Tick Count) (Day 40, 0.5 mg/kg subcutaneous on Day 0 ((S)-enantiomers)): 100%; Average % Efficacy (Tick Count) (Day 49, 0.5 mg/kg subcutaneous on Day 0 ((S)-enantiomers)): 36%; Average % Efficacy (Tick Count) (Day 55, 0.5 mg/kg subcutaneous on Day 0 ((S)-enantiomers)): 0%
4 | O=C(CNC(=O)c1ccc(C2=NOC(c3cc(Cl)cc(Cl)c3)(C(F)(F)F)C2)c2ccccc12)NCC(F)(F)F (stereo not shown) [If, reference compound] | 70 | 62 | 57 | 84 | 100 | 70 | 14 |  |  |  |  | 
